Test results taken from the supplement of paper PMC11208160.

Experiment: recombinant UMI read abundance after kanamycin selection (control-corrected) (log10(CPM+1)); higher = more efficient recombination; extreme values may be limits of the assay; sequences stand for … in AGTGCAGAGAAAATCGGCCAGTTTTCTCTGCCTGCAGTCCGCATGCCGTGGGACCCCTTGGGTTCTAACCTGTTGCCTAGATTTATGCAGCGGACTGCCTTTCTCCCAAAGTGATAAACCGG…AGGTTGGTTTCACT; site = the 11-nt donor
Outline: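 Pooled Escherichia coli screen of donor and donor-binding-loop pairs for the IS621 bridge recombinase. Each pair sits with a 12-nt UMI on a plasmid carrying a promoterless kanamycin gene. The library was co-electroporated with a target plasmid encoding a fixed target and T7-inducible recombinase, then plated with IPTG (0.07 mM) plus kanamycin, or unselected, each in two replicates. Recombinant UMIs were PCR-amplified across the donor–target junction and sequenced. Counts became CPM, averaged over replicates, scaled by control-derived factors and reported as log10(CPM+1).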
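Further: IS621 bridge recombinase in Escherichia coli cells against a fixed T5 target plasmid.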

## ATGTTCCCATGGACCGGTTTTCCCGGTAATCCGTATTTGTG (site AGGTTCCCTCA)
  recombinant UMI read abundance (log10): 0.0415

## ATGTTCCCATGGACCGGTTTTCCCGGTAATCCGTATTTGTG (site ATGTTCCCTCA)
  recombinant UMI read abundance (log10): 0.419

## ATGTTCGCATGGACCGGTTTTCCCGGTAATCCGTATTTGTA (site ATGTTCGCTTA)
  recombinant UMI read abundance (log10): 2.46

## ATGTTTGCATGGACCGGTTTTCCCGGTAATCCGTATTTGAT (site ATGTTTGCTAT)
  recombinant UMI read abundance (log10): 2.16

## ATTAAACCATGGACCGGTTTTCCCGGTAATCCGTATTTGCC (site ATTAAACCTGG)
  recombinant UMI read abundance (log10): 0

## ATTAAAGCATGGACCGGTTTTCCCGGTAATCCGTATTTGTA (site ATTAAAGCTTA)
  recombinant UMI read abundance (log10): 2.6

## ATTAAGACATGGACCGGTTTTCCCGGTAATCCGTATTTGGT (site ATTAAGACTAC)
  recombinant UMI read abundance (log10): 1.07

## ATTAAGACATGGACCGGTTTTCCCGGTAATCCGTATTTGGT (site ATTCAGACTAC)
  recombinant UMI read abundance (log10): 0.417

## ATTAAGACATGGACCGGTTTTCCCGGTAATCCGTATTTGGT (site ATTGAGACTAC)
  recombinant UMI read abundance (log10): 0.577

## ATTAAGACATGGACCGGTTTTCCCGGTAATCCGTATTTGGT (site ATTTAGACTAC)
  recombinant UMI read abundance (log10): 0.285

## ATTAGGCCATGGACCGGTTTTCCCGGTAATCCGTATTTGTG (site ATTAGGCCTCA)
  recombinant UMI read abundance (log10): 0.00967

## ATTCAAGCATGGACCGGTTTTCCCGGTAATCCGTATTTGAG (site ATACAAGCTCT)
  recombinant UMI read abundance (log10): 1.07

## ATTCAAGCATGGACCGGTTTTCCCGGTAATCCGTATTTGAG (site ATCCAAGCTCT)
  recombinant UMI read abundance (log10): 0.605

## ATTCAAGCATGGACCGGTTTTCCCGGTAATCCGTATTTGAG (site ATGCAAGCTCT)
  recombinant UMI read abundance (log10): 0.501

## ATTCAAGCATGGACCGGTTTTCCCGGTAATCCGTATTTGAG (site ATTCAAGCTCT)
  recombinant UMI read abundance (log10): 1.16

## ATTCAGACATGGACCGGTTTTCCCGGTAATCCGTATTTGGT (site ATTAAGACTAC)
  recombinant UMI read abundance (log10): 0.402

## ATTCAGACATGGACCGGTTTTCCCGGTAATCCGTATTTGGT (site ATTCAGACTAC)
  recombinant UMI read abundance (log10): 0.566

## ATTCAGACATGGACCGGTTTTCCCGGTAATCCGTATTTGGT (site ATTGAGACTAC)
  recombinant UMI read abundance (log10): 0.305

## ATTCAGACATGGACCGGTTTTCCCGGTAATCCGTATTTGGT (site ATTTAGACTAC)
  recombinant UMI read abundance (log10): 0.0116

## ATTCATACATGGACCGGTTTTCCCGGTAATCCGTATTTGTT (site ATTCATACTAA)
  recombinant UMI read abundance (log10): 0.291

## ATTGAGACATGGACCGGTTTTCCCGGTAATCCGTATTTGGG (site ATTGAGACTAC)
  recombinant UMI read abundance (log10): 0.0103

## ATTGAGACATGGACCGGTTTTCCCGGTAATCCGTATTTGGG (site ATTGAGACTCC)
  recombinant UMI read abundance (log10): 0.0142

## ATTGAGACATGGACCGGTTTTCCCGGTAATCCGTATTTGGG (site ATTGAGACTGC)
  recombinant UMI read abundance (log10): 0

## ATTGAGACATGGACCGGTTTTCCCGGTAATCCGTATTTGGG (site ATTGAGACTTC)
  recombinant UMI read abundance (log10): 0.0235

## ATTGAGTCATGGACCGGTTTTCCCGGTAATCCGTATTTGGT (site ATTGAGACTAC)
  recombinant UMI read abundance (log10): 0.0845

## ATTGAGTCATGGACCGGTTTTCCCGGTAATCCGTATTTGGT (site ATTGAGCCTAC)
  recombinant UMI read abundance (log10): 0.00525

## ATTGAGTCATGGACCGGTTTTCCCGGTAATCCGTATTTGGT (site ATTGAGGCTAC)
  recombinant UMI read abundance (log10): 0

## ATTGAGTCATGGACCGGTTTTCCCGGTAATCCGTATTTGGT (site ATTGAGTCTAC)
  recombinant UMI read abundance (log10): 2.29

## ATTGTAACATGGACCGGTTTTCCCGGTAATCCGTATTTGCT (site AATGTAACTAG)
  recombinant UMI read abundance (log10): 1.49

## ATTGTAACATGGACCGGTTTTCCCGGTAATCCGTATTTGCT (site ACTGTAACTAG)
  recombinant UMI read abundance (log10): 1.9

## ATTGTAACATGGACCGGTTTTCCCGGTAATCCGTATTTGCT (site AGTGTAACTAG)
  recombinant UMI read abundance (log10): 1.5

## ATTGTAACATGGACCGGTTTTCCCGGTAATCCGTATTTGCT (site ATTGTAACTAG)
  recombinant UMI read abundance (log10): 2.15

## ATTGTTGCATGGACCGGTTTTCCCGGTAATCCGTATTTGAC (site ATTGTTGCTGT)
  recombinant UMI read abundance (log10): 2.18

## ATTGTTGCATGGACCGGTTTTCCCGGTAATCCGTATTTGCT (site ATTGTTGCTAG)
  recombinant UMI read abundance (log10): 2.37

## ATTTAGACATGGACCGGTTTTCCCGGTAATCCGTATTTGCG (site ATTTAGACTCG)
  recombinant UMI read abundance (log10): 1.16

## ATTTAGTCATGGACCGGTTTTCCCGGTAATCCGTATTTGTT (site CACATCCCTTC)
  recombinant UMI read abundance (log10): 0.0539

## ATTTCTACATGGACCGGTTTTCCCGGTAATCCGTATTTGTT (site ATTTCTACTAA)
  recombinant UMI read abundance (log10): 0.0251

## ATTTGATCATGGACCGGTTTTCCCGGTAATCCGTATTTGTG (site ATTTGATCTCA)
  recombinant UMI read abundance (log10): 1.71

## CAAACAGCATGGACCGGTTTTCCCGGTAATCCGTATTTGCT (site CAAACAGCTAG)
  recombinant UMI read abundance (log10): 2.26

## CAAACAGCATGGACCGGTTTTCCCGGTAATCCGTATTTGCT (site CAACCAGCTAG)
  recombinant UMI read abundance (log10): 0.00434

## CAAACAGCATGGACCGGTTTTCCCGGTAATCCGTATTTGCT (site CAAGCAGCTAG)
  recombinant UMI read abundance (log10): 0.00437

## CAAACAGCATGGACCGGTTTTCCCGGTAATCCGTATTTGCT (site CAATCAGCTAG)
  recombinant UMI read abundance (log10): 0

## CAAAGAACATGGACCGGTTTTCCCGGTAATCCGTATTTGCG (site CAAAGAACTCG)
  recombinant UMI read abundance (log10): 2.53

## CAAAGGGCATGGACCGGTTTTCCCGGTAATCCGTATTTGAC (site CAAAGGGCTGT)
  recombinant UMI read abundance (log10): 2.62

## CAAATTTCATGGACCGGTTTTCCCGGTAATCCGTATTTGTG (site CAAATTTCTCA)
  recombinant UMI read abundance (log10): 0.763

## CAACAGACATGGACCGGTTTTCCCGGTAATCCGTATTTGAA (site CAACAGACTTT)
  recombinant UMI read abundance (log10): 1.88

## CAACCAGCATGGACCGGTTTTCCCGGTAATCCGTATTTGCT (site CAAACAGCTAG)
  recombinant UMI read abundance (log10): 0

## CAACCAGCATGGACCGGTTTTCCCGGTAATCCGTATTTGCT (site CAACCAGCTAG)
  recombinant UMI read abundance (log10): 0

## CAACCAGCATGGACCGGTTTTCCCGGTAATCCGTATTTGCT (site CAAGCAGCTAG)
  recombinant UMI read abundance (log10): 0

## CAACCAGCATGGACCGGTTTTCCCGGTAATCCGTATTTGCT (site CAATCAGCTAG)
  recombinant UMI read abundance (log10): 0

## CAACCCACATGGACCGGTTTTCCCGGTAATCCGTATTTGAT (site CAACCCACTAT)
  recombinant UMI read abundance (log10): 0.946

## CAACCTGCATGGACCGGTTTTCCCGGTAATCCGTATTTGGC (site CAACCTGCTGC)
  recombinant UMI read abundance (log10): 0

## CAACTAACATGGACCGGTTTTCCCGGTAATCCGTATTTGGA (site CAACTAACTTC)
  recombinant UMI read abundance (log10): 1.93

## CAACTAACATGGACCGGTTTTCCCGGTAATCCGTATTTGGA (site CCACTAACTTC)
  recombinant UMI read abundance (log10): 0.226

## CAACTAACATGGACCGGTTTTCCCGGTAATCCGTATTTGGA (site CGACTAACTTC)
  recombinant UMI read abundance (log10): 0.548

## CAACTAACATGGACCGGTTTTCCCGGTAATCCGTATTTGGA (site CTACTAACTTC)
  recombinant UMI read abundance (log10): 0.341

## CAACTAGCATGGACCGGTTTTCCCGGTAATCCGTATTTGCA (site CAACTAGCTTG)
  recombinant UMI read abundance (log10): 1.13
